Source: patent publication US11117898B2, “Pyrazolo-heteroaryl derivative, preparation method and medical use thereof” (Jiangsu Hengrui Medicine Co., Ltd., priority 2016, dated 2021)

Experiments:
CYP3A4 [1] = target: T1, CYP3A4 (Homo sapiens (Human), UniProt P08684); assay: Inhibition of the testosterone metabolite site of CYP3A4 in human liver microsomes; format: in vitro ADME; conditions: probe substrate testosterone
Protocol: The effect of the compounds of the present invention on the enzyme activity of testosterone metabolite site of CYP3A4 in human liver microsomes was determined by the following experimental method:
(§1) 100 mM PBS buffer was formulated, which was then used to formulate 2.5 mg/ml microsome solution and 5 mM NADPH solution. The 5× concentration of the compound working solution was diluted with PBS gradient (150, 50, 15, 5, 1.5, 0.15, 0.015, 0 μM). The 5× concentration of ketoconazole working solution was diluted with PBS gradient (150, 50, 15, 5, 1.5, 0.15, 0.015, 0 μM). Dextromethorphan working solution was diluted with PBS to a concentration of 50 μM.
(§2) 20 μl of 2.5 mg/ml microsome solution, 20 μl of 50 μM testosterone working solution, 20 μl of MgCl2 solution and 20 μl of the compound working solution (150, 50, 15, 5, 1.5, 0.15, 0.015, 0 μM, different reaction systems for each concentration) were taken respectively and mixed well. For the positive control group, the compound was replaced with the same concentration of ketoconazole. The mixture together with 5 mM NADPH solution were pre-incubated at 37° C. for 5 minutes. After 5 minutes, 20 μl of NADPH were added to each well, the reaction was started and incubated for 30 minutes. All the incubated samples were present in duplicate. After 30 minutes, 250 μl of acetonitrile containing internal standard were added to all samples, mixed well, shaken at 800 rpm for 10 minutes, and then centrifuged at 3700 rpm for 10 minutes. 80 μl of the supernatant were taken and analyzed by LC-MS/MS.
The data were calculated by Graphpad Prism to obtain the IC50 values of the compounds on the testosterone metabolite site of CYP3A4.

human TLR8 = human TLR8 (Homo sapiens (Human), UniProt Q9NR97); assay: Agonistic activity on human TLR8 in HEK-Blue hTLR8 stably transfected cells; format: cell-based; conditions: for EC50: OD 620 nm
Protocol: The activation effect of the compounds of the present invention on the hTLR8 protein expressed by the HEK-Blue™ hTLR8 stably transfected cells was determined by the following experimental method:
(§3) A bag of HEK-Blue detection dry powder was dissolved in 50 ml of water free of endotoxin, and the solution was then placed in an incubator at 37° C. for 10 minutes followed by sterile filtration to prepare a HEK-Blue detection medium. The compound was firstly formulated into a 20 mM stock solution, then diluted with pure DMSO to a maximum concentration of 6×10^6 nM, and a total of 10 points were obtained by a 3-fold gradient dilution. The compound was firstly diluted 20-fold with the medium, then 20 μl of the diluted compound were added to each well.
(§4) The supernate was removed from the HEK-Blue™ hTLR8 cells, to which 2-5 ml of pre-warmed PBS were then added. The cells were placed in an incubator for 1-2 minutes, gently pipetted, and counted by trypan blue staining. The cells were re-suspended in the HEK-Blue detection medium to adjust the concentration to 2.2×10^5 cells/ml. 180 μl of cells were added to the above 96-well plate already added with 20 μl of the compounds, and incubated at 37° C. for 6-16 hours.
The activation effect of the compounds of the present invention on human TLR8 can be determined by the above test, and the obtained EC50 values are shown in Table 2.

CYP2D6 = CYP2D6 (Homo sapiens (Human), UniProt P10635); assay: Inhibition of the enzyme activity of CYP2D6 in human liver microsomes; format: in vitro ADME; conditions: probe substrate dextromethorphan
Protocol: The effect of the compounds of the present invention on the enzyme activity of CYP2D6 in human liver microsomes was determined by the following experimental method:
as §1, with “quinidine” for “ketoconazole”
as §2, with “quinidine.” for “ketoconazole.”
The data were calculated by Graphpad Prism to obtain the IC50 values of the compounds on the metabolite site of CYP2D6.

CYP3A4 [2] = target: T1, CYP3A4; assay: Inhibition of the midazolam metabolite site of CYP3A4 in human liver microsomes; format: in vitro ADME; conditions: probe substrate midazolam
Protocol: The effect of the compounds of the present invention on the enzyme activity of midazolam metabolite site of CYP3A4 in human liver microsomes was determined by the following experimental method:
as §1, §2
The data were calculated by Graphpad Prism to obtain the IC50 values of the compounds on the midazolam metabolite site of CYP3A4.

human TLR7 = human TLR7 (Homo sapiens (Human), UniProt Q9NYK1); assay: Agonistic activity on human TLR7 in HEK-Blue hTLR7 stably transfected cells; format: cell-based; conditions: for EC50: OD 620 nm
Protocol: The activation effect of the compounds of the present invention on the hTLR7 protein expressed by the HEK-Blue™ hTLR7 stably transfected cells was determined by the following experimental method:
as §3, with “dilution.” for “dilution. The compound was firstly diluted 20-fold with the medium, then 20 μl of the diluted compound were added to each well.”
as §4, with “The above formulated compound was firstly diluted 20-fold with the medium, then 20 μl of the diluted compound were added to each well. The supernate” for “The supernate”, “the HEK-Blue™ hTLR7 cells, to” for “the HEK-Blue™ hTLR8 cells, to”
The activation effect of the compounds of the present invention on human TLR7 can be determined by the above test, and the obtained EC50 values are shown in Table 1.

PBMC = assay: Stimulation of the secretion of IFN-α from peripheral blood mononuclear cells (PBMC); format: cell-based, human; conditions: minimal effective concentration: lowest concentration giving cytokine level at least 3 times the minimum detection limit; 24 hours incubation
Protocol: The ability of the compounds of the present invention to stimulate the secretion of IFN-α from PBMC was determined by the following experimental method:
The compound was diluted with pure DMSO to a maximum concentration of 5 mM, and a total of 9 points were obtained by a 4-fold gradient dilution. 4 μl of the compound were then added to 196 μl of RMPI 1640 medium containing 10% FBS and mixed well. 50 μl of the mixture were taken from each well and added to a new 96-well plate.
All reagents were equilibrated to room temperature. 60 ml of blood and PBS+2% FBS were added to a 250 ml culture flask, gently pipetted, mixed well and diluted. 15 ml of lymphocyte separation solution Ficoll-Paque PREMIUM and then 30 ml of diluted blood were added to a 50 ml PBMC centrifuge tube SepMate™-50. The mixture was centrifuged at 1200 g for 10 minutes at room temperature. The supernatant was taken and then centrifuged at 300 g for 8 minutes. The cells were re-suspended in the RMPI 1640 medium containing 10% FBS and counted, and the number of PBMCs was adjusted to 3.33×10^6 cells/ml. 150 μl of the cell solution were added to the plate added with the compound, and incubated in an incubator at 37° C., in 5.0% CO2 for 24 hours.
The cell culture plate was placed in a centrifuge, and centrifuged at 1200 rpm for 10 minutes at room temperature. 150 μl of the supernatant were taken from each well. The reagents in the human IFN-α kit were first equilibrated to normal temperature. The anti-IFN-α-Eu^3+-Cryptate conjugate and the anti-IFN-α-d2-conjugate were formulated in the dark according to the kit instructions, and both of them were mixed well with the conjugate buffer at a ratio of 1:40. 16 μl of the supernatant obtained by centrifugation were then added to each well. 2 μl of anti-IFN-α-Eu^3+-Cryptate conjugate and anti-IFN-α-d2-conjugate formulated just now were then added to each well. The plate was shaken and mixed well, and incubated in the dark at room temperature for 3 hours.
The PHERAStar was read in the HTRF mode. The lowest compound concentration that stimulated cytokine levels of at least 3 times higher than the minimum detection limit was defined as the minimal effective concentration (MEC) value of the compound in the cytokine stimulation test.
The ability of the compounds of the present invention to stimulate the secretion of IFN-α from PBMC was determined by the above test, and the obtained MEC values are shown in Table 3.

human TLR7, sequence (Q9NYK1 27-1049): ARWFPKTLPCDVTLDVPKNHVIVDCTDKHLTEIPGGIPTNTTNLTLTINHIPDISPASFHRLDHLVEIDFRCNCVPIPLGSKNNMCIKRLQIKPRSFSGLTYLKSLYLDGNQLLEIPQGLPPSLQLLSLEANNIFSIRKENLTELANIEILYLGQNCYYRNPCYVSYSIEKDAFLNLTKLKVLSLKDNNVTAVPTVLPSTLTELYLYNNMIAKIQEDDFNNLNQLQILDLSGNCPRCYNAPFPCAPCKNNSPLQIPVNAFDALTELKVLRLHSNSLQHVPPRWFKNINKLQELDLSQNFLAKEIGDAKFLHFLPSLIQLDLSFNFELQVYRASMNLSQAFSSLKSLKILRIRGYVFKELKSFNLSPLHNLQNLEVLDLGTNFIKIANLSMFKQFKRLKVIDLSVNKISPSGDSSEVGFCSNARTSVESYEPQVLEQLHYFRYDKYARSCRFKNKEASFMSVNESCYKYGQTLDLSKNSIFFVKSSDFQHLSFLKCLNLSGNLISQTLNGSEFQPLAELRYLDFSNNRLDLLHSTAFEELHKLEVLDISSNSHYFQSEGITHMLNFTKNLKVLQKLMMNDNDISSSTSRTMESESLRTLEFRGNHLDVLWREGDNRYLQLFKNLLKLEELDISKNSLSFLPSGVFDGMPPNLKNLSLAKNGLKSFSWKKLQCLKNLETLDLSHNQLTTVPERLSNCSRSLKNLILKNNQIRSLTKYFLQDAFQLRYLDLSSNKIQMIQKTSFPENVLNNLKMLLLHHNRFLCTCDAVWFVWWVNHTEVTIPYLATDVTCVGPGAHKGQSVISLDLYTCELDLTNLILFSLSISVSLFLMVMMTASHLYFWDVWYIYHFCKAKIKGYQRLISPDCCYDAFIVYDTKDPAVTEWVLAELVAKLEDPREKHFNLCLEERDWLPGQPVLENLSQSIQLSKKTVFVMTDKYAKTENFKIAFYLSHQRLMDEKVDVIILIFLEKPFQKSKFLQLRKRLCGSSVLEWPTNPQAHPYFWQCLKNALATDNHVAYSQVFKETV
T1 sequence (P08684 whole entry): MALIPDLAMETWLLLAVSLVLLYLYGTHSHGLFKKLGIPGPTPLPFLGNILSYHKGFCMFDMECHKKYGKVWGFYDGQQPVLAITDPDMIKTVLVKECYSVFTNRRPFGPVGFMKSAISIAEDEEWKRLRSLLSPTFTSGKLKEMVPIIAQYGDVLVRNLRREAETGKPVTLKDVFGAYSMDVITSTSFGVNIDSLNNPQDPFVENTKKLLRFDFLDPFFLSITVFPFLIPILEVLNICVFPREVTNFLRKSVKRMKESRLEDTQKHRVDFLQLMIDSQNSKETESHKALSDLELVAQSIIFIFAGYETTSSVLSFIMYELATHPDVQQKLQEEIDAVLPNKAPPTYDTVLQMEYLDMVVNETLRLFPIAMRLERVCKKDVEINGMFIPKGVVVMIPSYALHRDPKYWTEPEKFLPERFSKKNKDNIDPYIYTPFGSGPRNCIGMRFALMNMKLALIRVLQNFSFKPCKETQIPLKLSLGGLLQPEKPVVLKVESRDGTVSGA
CYP2D6, sequence (P10635 whole entry): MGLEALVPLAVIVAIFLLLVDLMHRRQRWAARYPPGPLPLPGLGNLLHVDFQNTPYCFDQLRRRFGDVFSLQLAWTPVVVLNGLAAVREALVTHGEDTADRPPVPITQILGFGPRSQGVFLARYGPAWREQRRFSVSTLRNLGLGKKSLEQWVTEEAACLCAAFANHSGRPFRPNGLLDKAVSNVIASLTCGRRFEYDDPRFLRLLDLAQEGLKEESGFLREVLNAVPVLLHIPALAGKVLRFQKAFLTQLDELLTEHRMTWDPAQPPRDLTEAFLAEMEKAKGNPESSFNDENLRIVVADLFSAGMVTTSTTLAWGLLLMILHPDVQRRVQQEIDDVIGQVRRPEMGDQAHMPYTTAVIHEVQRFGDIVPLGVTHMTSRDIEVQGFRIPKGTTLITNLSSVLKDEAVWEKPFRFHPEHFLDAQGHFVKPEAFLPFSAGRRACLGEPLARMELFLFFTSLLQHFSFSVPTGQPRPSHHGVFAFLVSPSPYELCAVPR
human TLR8, sequence (Q9NR97 27-1041): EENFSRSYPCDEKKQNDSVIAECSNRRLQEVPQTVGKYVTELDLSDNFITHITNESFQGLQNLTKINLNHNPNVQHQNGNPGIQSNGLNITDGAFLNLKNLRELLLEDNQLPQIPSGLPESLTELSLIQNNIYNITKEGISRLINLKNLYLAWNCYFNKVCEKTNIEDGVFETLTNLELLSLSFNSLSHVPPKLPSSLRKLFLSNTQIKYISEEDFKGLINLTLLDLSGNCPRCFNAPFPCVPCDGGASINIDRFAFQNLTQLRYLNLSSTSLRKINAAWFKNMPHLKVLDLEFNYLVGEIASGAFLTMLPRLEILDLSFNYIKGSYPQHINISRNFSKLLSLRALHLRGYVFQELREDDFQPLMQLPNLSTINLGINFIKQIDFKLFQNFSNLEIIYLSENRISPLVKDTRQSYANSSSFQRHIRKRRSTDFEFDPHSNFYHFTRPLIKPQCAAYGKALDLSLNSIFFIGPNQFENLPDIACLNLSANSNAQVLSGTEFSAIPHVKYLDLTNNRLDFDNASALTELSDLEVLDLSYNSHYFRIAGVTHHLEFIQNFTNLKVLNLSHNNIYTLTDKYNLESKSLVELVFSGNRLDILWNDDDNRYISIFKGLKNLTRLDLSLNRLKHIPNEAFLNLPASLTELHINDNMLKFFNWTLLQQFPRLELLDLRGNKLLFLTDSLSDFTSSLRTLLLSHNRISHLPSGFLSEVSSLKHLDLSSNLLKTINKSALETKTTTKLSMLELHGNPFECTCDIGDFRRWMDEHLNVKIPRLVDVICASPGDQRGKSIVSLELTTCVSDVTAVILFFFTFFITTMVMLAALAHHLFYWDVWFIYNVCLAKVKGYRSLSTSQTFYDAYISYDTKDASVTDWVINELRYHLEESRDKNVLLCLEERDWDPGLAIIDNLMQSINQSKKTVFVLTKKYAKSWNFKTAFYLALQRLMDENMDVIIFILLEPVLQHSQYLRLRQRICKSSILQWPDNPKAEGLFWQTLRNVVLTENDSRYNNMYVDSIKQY

Structure (SMILES) | IC50 (CYP3A4 [1]) [nM] | Emax (human TLR8) [%] | EC50 (human TLR8) [µM] | IC50 (CYP2D6) [µM] | IC50 (CYP3A4 [2]) [µM] | Emax (human TLR7) [%] | EC50 (human TLR7) [nM] | MEC to stimulate the secretion of IFN-α from PBMC (PBMC) [nM]
CCCCOc1nc(N)c2cnn(Cc3cccc(CN4CCCCC4)c3)c2n1 [Example 6, 6-Butoxy-1-(3-(piperidin-1-ylmethyl)benzyl)-1H-pyrazolo[3,4-d]pyrimidin-4-amine] | 3000 | 35 | > 6 | 10 | 10 | 91 | 233 | –
CCCNC(=O)c1nc(N)c2cnn(Cc3ccc(CN4CCCC4)cc3)c2n1 [Example 11, 4-Amino-N-propyl-1-(4-(pyrrolidin-1-ylmethyl)benzyl)-1H-pyrazolo[3,4-d]pyrimidine-6-carboxamide] | – | 0 | > 30 | – | – | 85 | 335 | –
CCCCOc1nc(N)c2cnn(Cc3cccc(CN4CCC4)c3)c2n1 [Example 5, 1-(3-(Azetidin-1-ylmethyl)benzyl)-6-butoxy-1H-pyrazolo[3,4-d]pyrimidin-4-amine] | – | – | – | – | – | – | – | 41
CCCCNc1nc(N)c2cnn(Cc3ccc(CN4CCCC4)cc3)c2n1 [Example 10, N^6-Butyl-1-(4-(pyrrolidin-1-ylmethyl)benzyl)-1H-pyrazolo[3,4-d]pyrimidine-4,6-diamine] | – | 0 | > 30 | – | – | 79 | 349 | –
CCCCOc1nc(N)c2cnn(Cc3ccc(CN4CCCC4)cc3)c2n1 [Example 1, 6-Butoxy-1-(4-(pyrrolidin-1-ylmethyl)benzyl)-1H-pyrazolo[3,4-d]pyrimidin-4-amine] | – | 8 | > 30 | > 30 | – | 100 | – | 6
COCC(C)Oc1nc(N)c2cnn(Cc3ccc(CN4CCCC4)cc3)c2n1 (stereo not shown) [Example 8, 6-((1-Methoxypropan-2-yl)oxy)-1-(4-(pyrrolidin-1-ylmethyl)benzyl)-1H-pyrazolo[3,4-d]pyrimidin-4-amine] | – | 2 | > 30 | – | – | 104 | 217 | –
CCCCOc1nc(N)c2cnn(Cc3ccc(CN4CCCC4)c(F)c3)c2n1 [Example 9, 6-Butoxy-1-(3-fluoro-4-(pyrrolidin-1-ylmethyl)benzyl)-1H-pyrazolo[3,4-d]pyrimidin-4-amine] | – | – | – | – | – | 96 | 128 | –
CCCCC(=O)c1nc(N)c2cnn(Cc3ccc(CN4CCCC4)cc3)c2n1 [Example 12] | > 30000 | 5 | > 30 | 16 | 16 | 78 | 388 | –
